Data published in patent publication US20240261272A1, “LPA1 ANTAGONISTS FOR TREATING INTERSTITIAL LUNG DISEASE” (Bristol-Myers Squibb Company, priority 2022, published 2024).

Tests used:
[1] = Phase 1 Part A single ascending dose (SAD) study in healthy participants: safety, blood pressure; assay type: in vivo, human; design: Mean DBP: unit not given here
Experimental: The study was performed in 3 parts in 112 healthy male and female participants, including 24 Japanese participants. Female participants were to be not of childbearing potential. The present study was designed to evaluate the safety and tolerability, PK, and exploratory PD of an oral suspension of Compound A. Parts A and B (Cohort B1 only) enrolled healthy participants and was conducted at a site in The Netherlands and Part B (Cohort B2 to B5) enrolled healthy non-Japanese participants and was conducted at a site in the United Kingdom (UK). Part C enrolled healthy Japanese participants and was conducted at the same site in the UK.
Part A was an SAD study in a planned number of 6 sequential dose escalation cohorts (3, 10, 30, 100, 150, or 250 mg) of 8 healthy participants (6 active+2 placebo) each, under fasted conditions. Eligible participants in Part A (excluding those in Cohort A7 [food effect (FE)/pH cohort]) received a single administration of study drug (Compound A or placebo) under fasted conditions. In Cohort A1 to Cohort A6, sentinel dosing was employed (1 active+1 placebo, followed after 48 hours by the remaining participants of the cohort [5 active+1 placebo]). […] In addition to the 6 ascending dose cohorts, a cohort of 6 healthy participants (Cohort A7; 6 active, 100 mg Compound A) was included to assess the effect of food and pH on the bioavailability of Compound A in a 3-period, open-label, fixed-sequence, crossover design (FE/pH cohort).
Physical examinations, vital sign measurements (including orthostasis testing in Cohort A6, Cohort B3 to B5, and C1 to C3 at selected time points), 12-lead electrocardiogram (ECG), and clinical laboratory evaluations were performed at selected times throughout the study. In addition, Holter monitoring was performed for the first 24 hours post dose on Day 1 in Part A (not in FE/pH cohort), and also for the first 24 hours post dose on Day 1 and Day 14 in Parts B and C. Participants were closely monitored for adverse events (AEs). Blood samples were collected for up to 14 days (follow-up visit) after (last) study drug administration for PK analysis. In addition, blood and urine were collected for exploratory biomarker assessments and for biobanking of samples for potential analyses. Urine was collected for potential PK analysis for up to 96 hours after a single dose of Compound A or placebo was administered in the SAD part, and for up to 24 hours after the first (morning) dose of study drug on Day 1 and for up to 24 hours after the last (morning) dose of study drug on Day 14 in the MAD parts.

participants with PPF = test: Phase 2 study, PPF cohort: efficacy (rate of FVC decline in % of predicted, FVC); assay type: in vivo, human; conditions: for Relative Reduction: table title, dose not given
Experimental: A total of 123 participants with PPF were randomized. Participants (age ≥21 years) were randomized (1:1:1) to receive 30 mg or 60 mg Compound A or PBO twice daily for 26 weeks. […] Immunosuppressive medications (mycophenolate mofetil, mycophenolic acid, azathioprine and/or tacrolimus) were permitted only if dosing is stable for ≥6 months prior to screening. If receiving antifibrotic agents pirfenidone or nintedanib, patients had to receive a stable dosage for ≥3 months prior to screening and during the screening period; if not receiving pirfenidone or nintedanib, patients had to be naive to both drugs or not have received either 4 weeks prior to Day 1. A total of 47 (38.2%) subjects were receiving antifibrotic treatment (with or without immunosuppression therapy). Of those subjects, 34 were being treated with nintedanib and 13 with pirfenidone. Participants were stratified by usual interstitial pneumonia (UIP) pattern (presence versus absence) and background therapy (antifibrotics +/−ILD-targeted immunosuppression versus ILD-targeted immunosuppression alone versus none).UIP pattern was present in 52% of subjects and unclassifiable ILD was he most common disease categorization.
The study was not powered to detect statistical significance (no formal testing). No target effect size was defined in the study design. There were two estimand approaches for analysis: Treatment Policy: Effect of treatment with dose reduction as part of treatment regimen.
While-On Treatment: Effect of treatment without dose reduction.
The main efficacy endpoint, rate of FVC decline (in % of predicted) from baseline to wk-26 in the PPF cohort, was estimated using a linear mixed-effects model utilizing all FVC timepoints. It was analyzed under a primary estimand (utilizing all data, treatment policy strategy), and under supplementary estimand (utilizing all data up to the point of dose reduction, while-on-treatment strategy). Analysis was performed in the overall population as well as in sub-groups by 1) background anti-fibrotic treatment or not 2) UIP radiographic pattern (presence or not). The mean baseline ppFVC was 66.700 for the PPF cohort.

CCCN(C)C(=O)OCc1c(-c2ccc(O[C@H]3CCC[C@H](C(=O)O)C3)c(C)n2)nnn1C [Compound A, (1S,3S)-3-((2-methyl-6-(1-methyl-5-(((methyl(propyl)carbamoyl)-oxy)methyl)-1H-1,2,3-triazol-4-yl)pyridin-3-yl)oxy)cyclohexane-1-carboxylic acid]
Mean DBP ([1]; 100 mg Fasted + Famotidine, D 1 2 h): 67.2 | Mean DBP ([1]; 100 mg Fasted + Famotidine, D 1 4 h): 65.3 | Mean DBP ([1]; 100 mg Fasted + Famotidine, D 1 8 h): 63.2 | Mean DBP ([1]; 100 mg Fasted + Famotidine, D 2 24 h): 71.7 | Mean DBP ([1]; 100 mg Fasted, D 1 2 h): 67.2 | Mean DBP ([1]; 100 mg Fasted, D 1 4 h): 64.2 | Mean DBP ([1]; 100 mg Fasted, D 1 8 h): 63.0 | Mean DBP ([1]; 100 mg Fasted, D 2 24 h): 69.3 | Mean DBP ([1]; 100 mg Fed, D 1 2 h): 57.2 | Mean DBP ([1]; 100 mg Fed, D 1 4 h): 58.2 | Mean DBP ([1]; 100 mg Fed, D 1 8 h): 58.8 | Mean DBP ([1]; 100 mg Fed, D 2 24 h): 69.3 | Mean DBP ([1]; SAD 3 mg, D 1 2 h): 68.3 | Mean DBP ([1]; SAD 3 mg, D 1 4 h): 69.5 | Mean DBP ([1]; SAD 3 mg, D 1 8 h): 68.0 | Mean DBP ([1]; SAD 3 mg, D 2 24 h): 68.7 | Mean DBP ([1]; SAD 10 mg, D 1 2 h): 67.7 | Mean DBP ([1]; SAD 10 mg, D 1 4 h): 68.7 | Mean DBP ([1]; SAD 10 mg, D 1 8 h): 63.0 | Mean DBP ([1]; SAD 10 mg, D 2 24 h): 71.7 | Mean DBP ([1]; SAD 30 mg, D 1 2 h): 66.2 | Mean DBP ([1]; SAD 30 mg, D 1 4 h): 65.2 | Mean DBP ([1]; SAD 30 mg, D 1 8 h): 65.2 | Mean DBP ([1]; SAD 30 mg, D 2 24 h): 71.0 | Mean DBP ([1]; SAD 100 mg, D 1 2 h): 59.0 | Mean DBP ([1]; SAD 100 mg, D 1 4 h): 58.7 | Mean DBP ([1]; SAD 100 mg, D 1 8 h): 56.3 | Mean DBP ([1]; SAD 100 mg, D 2 24 h): 66.0 | Mean DBP ([1]; SAD 150 mg, D 1 2 h): 58.2 | Mean DBP ([1]; SAD 150 mg, D 1 4 h): 56.0 | Mean DBP ([1]; SAD 150 mg, D 1 8 h): 57.8 | Mean DBP ([1]; SAD 150 mg, D 2 24 h): 66.2 | dose-limiting events (in words) ([1]; SAD Cohort A6, 250 mg, sentinel participants): dose-limiting events observed in a sentinel participant | effect on SBP and DBP (in words) ([1]; SAD cohorts): decreased SBP and DBP dose dependently, reversibly, and mostly asymptomatically | safety and tolerability (in words) ([1]; single and multiple dose oral administration to healthy participants): generally safe and well tolerated | dose response (in words) (participants with PPF; PPF cohort, 30 mg and 60 mg): Clear dose response | mean observed change from baseline in ppFVC percentage and FVC versus placebo (in words) (participants with PPF; PPF cohort, 30 mg and 60 mg, FIGS. 10 and 11): show improvement over placebo at week 8 | consistency of efficacy across sub-groups (in words) (participants with PPF; PPF cohort, irrespective of background antifibrotics or of UIP pattern): Efficacy consistent in all sub-groups | FVC (% Predicted) Rate of Decline, Difference (participants with PPF; PPF, 30 mg - placebo, UIP Present, Primary Estimand): 0.88 % Predicted | FVC (% Predicted) Rate of Decline, Slope (participants with PPF; PPF, 30 mg, Not Receiving Antifibrotic Treatment, Supplementary Estimand): −2.83 % Predicted | FVC (% Predicted) Rate of Decline, Slope (participants with PPF; PPF, 30 mg, Overall Population, Primary Estimand - Treatment Policy): −2.7 % Predicted | FVC (% Predicted) Rate of Decline, Slope (participants with PPF; PPF, 30 mg, Receiving Antifibrotic Treatment, Supplementary Estimand): −1.8 % Predicted | FVC (% Predicted) Rate of Decline, Slope (participants with PPF; PPF, 30 mg, UIP Absent, Supplementary Estimand): −2.24 % Predicted | FVC (% Predicted) Rate of Decline, Slope (participants with PPF; PPF, 30 mg, UIP Present, Primary Estimand): −3.07 % Predicted | FVC (% Predicted) Rate of Decline, Difference (participants with PPF; PPF, 60 mg - placebo, UIP Absent, Supplementary Estimand): 3.8 % Predicted | FVC (% Predicted) Rate of Decline, Slope (participants with PPF; PPF, 60 mg, Not Receiving Antifibrotic Treatment, Supplementary Estimand): −1.56 % Predicted | FVC (% Predicted) Rate of Decline, Slope (participants with PPF; PPF, 60 mg, Overall Population, Supplementary Estimand - While On Treatment): −1.3 % Predicted | FVC (% Predicted) Rate of Decline, Slope (participants with PPF; PPF, 60 mg, Receiving Antifibrotic Treatment, Supplementary Estimand): −1.1 % Predicted | FVC (% Predicted) Rate of Decline, Slope (participants with PPF; PPF, 60 mg, UIP Absent, Supplementary Estimand): −0.7 % Predicted | FVC (% Predicted) Rate of Decline, Slope (participants with PPF; PPF, 60 mg, UIP Present, Primary Estimand): −1.46 % Predicted | Treatment difference 60 mg v placebo, rate of decline in ppFVC baseline to Week 26 (participants with PPF; PPF, Non UIP subgroup): 3.80 | Relative Reduction (participants with PPF; PPF, Not Receiving Antifibrotic Treatment, Primary Estimand): Estimand - Treatment Policy (Relative Reduction = 68.5%) | Relative Reduction (participants with PPF; PPF, Not Receiving Antifibrotic Treatment, Supplementary Estimand): Estimand - While on Treatment (Relative Reduction = 62.6%) | Relative Reduction (participants with PPF; PPF, Receiving Antifibrotic Treatment, Primary Estimand): Estimand - Treatment Policy (Relative Reduction = 85%) | Relative Reduction (participants with PPF; PPF, Receiving Antifibrotic Treatment, Supplementary Estimand): Estimand - While on Treatment (Relative Reduction = 74.9%) | Relative Reduction (participants with PPF; PPF, UIP Absent, Primary Estimand): Policy Strategy (Relative Reduction = 83.6%) | Relative Reduction (participants with PPF; PPF, UIP Absent, Supplementary Estimand): While on Treatment (Relative Reduction = 84.4%) | Relative Reduction (participants with PPF; PPF, UIP Present, Primary Estimand): Policy Strategy (Relative Reduction = 63%) | Relative Reduction (participants with PPF; PPF, UIP Present, Supplementary Estimand): While on Treatment (Relative Reduction = 54%)
